± gives the expanded uncertainty stated by the source.
Experiments:
[1] = 101.3 kPa, Liquid; for viscosity: Falling or rolling sphere viscometry; for mass density: Vibrating tube method
[2] = wn = mass fraction of the nth substance listed; details: 101.3 kPa, Liquid, w1 = 1; for viscosity: Falling or rolling sphere viscometry; for mass density: Vibrating tube method

NCCO [2-aminoethan-1-ol]
[1]
Details	mass density [kg/m3]	viscosity [mPa·s]
293.15 K	1016.7 ± 2	24.23 ± 0.99
298.15 K	1012.8 ± 2	18.94 ± 0.77
303.15 K	1008.8 ± 2	15.04 ± 0.61
308.15 K	1004.9 ± 2	12.14 ± 0.49
313.15 K	1000.9 ± 2	9.938 ± 0.4
318.15 K	996.9 ± 2	8.236 ± 0.34
323.15 K	992.9 ± 2	6.907 ± 0.28
328.15 K	988.8 ± 2	5.855 ± 0.24
333.15 K	984.8 ± 2	5.011 ± 0.2
338.15 K	980.7 ± 2	4.327 ± 0.18
343.15 K	976.6 ± 2	3.766 ± 0.15
348.15 K	972.5 ± 2	3.3 ± 0.13
353.15 K	968.4 ± 2	2.908 ± 0.12

NCCO [2-aminoethan-1-ol] + COCCO
[2]
Details	mass density [kg/m3]	viscosity [mPa·s]
293.15 K	1016.7 ± 2	24.23 ± 0.99
298.15 K	1012.8 ± 2	18.94 ± 0.77
303.15 K	1008.8 ± 2	15.04 ± 0.61
308.15 K	1004.9 ± 2	12.14 ± 0.49
313.15 K	1000.9 ± 2	9.938 ± 0.4
318.15 K	996.9 ± 2	8.236 ± 0.34
323.15 K	992.9 ± 2	6.907 ± 0.28
328.15 K	988.8 ± 2	5.855 ± 0.24
333.15 K	984.8 ± 2	5.011 ± 0.2
338.15 K	980.7 ± 2	4.327 ± 0.18
343.15 K	976.6 ± 2	3.766 ± 0.15
348.15 K	972.5 ± 2	3.3 ± 0.13
353.15 K	968.4 ± 2	2.908 ± 0.12

COCCO [2-methoxyethan-1-ol]
[1]
Details	mass density [kg/m3]	viscosity [mPa·s]
293.15 K	964.7 ± 2	1.692 ± 0.071
298.15 K	960.1 ± 2	1.527 ± 0.064
303.15 K	955.5 ± 2	1.386 ± 0.058
308.15 K	950.9 ± 2	1.262 ± 0.053
313.15 K	946.2 ± 2	1.155 ± 0.048
318.15 K	941.5 ± 2	1.061 ± 0.044
323.15 K	936.7 ± 2	0.9781 ± 0.041
328.15 K	932 ± 2	0.905 ± 0.037
333.15 K	927.2 ± 2	0.8397 ± 0.035
338.15 K	922.3 ± 2	0.7818 ± 0.032
343.15 K	917.4 ± 2	0.7298 ± 0.03
348.15 K	912.4 ± 2	0.6834 ± 0.028
353.15 K	907.4 ± 2	0.6409 ± 0.026

Reference: the NIST ThermoML archive (doi:10.1016/j.jct.2018.12.028)
